Active and inactive are the calls of the source. The rule behind the calls is not given here.
How the values were obtained:
A549 = experiment: Growth inhibition of human A549 cells measured after 72 hrs by SRB assay; format: functional, cell-based; details: A549, 72 h
HCT-116 [1] = experiment: Growth inhibition of human HCT116 cells measured after 72 hrs by SRB assay; format: functional, cell-based; details: HCT-116, 72 h
HL-60 [2] = experiment: Cell cycle arrest in human HL60 cells assessed as accumulation at G2/M phase at 2 uM after 24 hrs by propidium iodide staining-based flow cytometric analysis relative to control; format: functional
Nucleic Acid = experiment: Binding affinity to linearized Escherichia coli pBR322 DNA assessed as inhibition of T4-DNA ligase-mediated circularization at 100 uM after 30 mins by agarose gel electrophoresis; format: nucleic-acid assay
HL-60 [3] = experiment: Cell cycle arrest in human HL60 cells assessed as accumulation at G2/M phase at 8 uM after 24 hrs by propidium iodide staining-based flow cytometric analysis relative to control; format: functional
HCT-116 [4] = experiment: Antitumor activity against human HCT116 cells transplanted in nude mouse assessed as decrease in tumor volume at 15 mg/kg, iv administered three times per week for three weeks measured on day 21 (reference value: 1245 +/- 192 mm'3); format: functional
HCT-116 [5] = experiment: Antitumor activity against human HCT116 cells transplanted in nude mouse assessed as tumor volume at 15 mg/kg, iv administered three times per week for three weeks relative to control; format: functional
Mus musculus = experiment: Toxicity in nude mouse xenografted with human HCT116 cells assessed as body weight change at 15 mg/kg, iv administered three times a week for 3 weeks (reference value: 19.4 g); format: organism-based, HCT-116; set-up: dose 15 mg/kg, route intravenous; details: in vivo, 504 h

SMILES | IC50 (A549) [µM] | IC50 (HCT-116 [1]) [µM] | also measured
O=C(NCCN1CCCCC1)c1cc2c3ccccc3[nH]c2c2cc(Br)ccc12 | 19.5 | 17 | –
CN(C)CCCNC(=O)c1cc2c3ccccc3[nH]c2c2cc(Br)ccc12 [listing 1 of 2 here] | 8.2 | 9.5 | Activity (HL-60 [2]): 61.3%
CN(C)CCN1C(=O)c2cccc3c2c(cc2c4ccccc4sc32)C1=O | 0.4 | 2.2 | inhibition (Nucleic Acid): Active; Activity (HL-60 [2]): 52.48%
CNCCNC(=O)c1cc2c3ccccc3[nH]c2c2cc(Br)ccc12 | 17.5 | 16.2 | –
O=C(NCCO)c1cc2c3ccccc3[nH]c2c2cc(Br)ccc12 | > 100 | > 100 | –
CN(C)CCNC(=O)c1cc2c3ccccc3[nH]c2c2cc(Br)ccc12 | 12.1 | 8.8 | inhibition (Nucleic Acid): Active; Activity (HL-60 [3]): 48.13%
CN(C)CCCNC(=O)c1cc2c3ccccc3[nH]c2c2cc(Br)ccc12 [listing 2 of 2 here] | – | – | inhibition (Nucleic Acid): Active
CN(C)CCCNC(=O)c1cc2c3ccccc3[nH]c2c2cc(Br)ccc12.O=C(O)CC(O)(CC(=O)O)C(=O)O | – | – | Activity (HCT-116 [4]): 676 mm3; T/C (HCT-116 [5]): 58.97%; Activity (Mus musculus): 16.3 g
O=C(NCCNCCO)c1cc2c3ccccc3[nH]c2c2cc(Br)ccc12 | 25.6 | 17.5 | –
O=C(NCCN1CCOCC1)c1cc2c3ccccc3[nH]c2c2cc(Br)ccc12 | 9.4 | 64.9 | –
CN(C)CCNC(=O)c1cc2c3ccccc3[nH]c2c2ccccc12 | 23.8 | 23.8 | –
CN(C)CCN1C(=O)c2cccc3cc(N)cc(c23)C1=O [AMONAFIDE] | 8.1 | 15.3 | –
O=C(NCCN1CCNCC1)c1cc2c3ccccc3[nH]c2c2cc(Br)ccc12 | 68.4 | 70.3 | –
CN(C)CCNC(=O)c1cc2c3ccccc3[nH]c2c2cc(N(C)C)ccc12 | 23.1 | 20.1 | –
O=C(NCCN1CCCC1)c1cc2c3ccccc3[nH]c2c2cc(Br)ccc12 | 10.6 | 11 | –
CN(C)CCN1C(=O)c2cccc3cc(N)cc(c23)C1=O.O=C(O)CC(O)(CC(=O)O)C(=O)O [AMONAFIDE CITRATE] | – | – | Activity (HCT-116 [4]): 664 mm3; T/C (HCT-116 [5]): 52.74%; Activity (Mus musculus): 14.6 g
CN(C)CCNC(=O)c1cc2c3ccccc3[nH]c2c2cc(N)ccc12 | 38.4 | 36.2 | –

Source: ChEMBL document CHEMBL1909553, “Design, synthesis and biological evaluation of substituted 11H-benzo[a]carbazole-5-carboxamides as novel antitumor agents” (Eur J Med Chem, 2011)
